Experimental data published in patent US20150045313A1, “Ectoparasiticidal Methods and Formulations” (Eli Lilly and Company, priority 2009, published 2015).
Where two headings read alike, the source gives them in different places.

Legend:
Cat Flea = assay: Flea Contact Assay (FCA); conditions: Cat Flea
Experimental: Flea Contact Assay (FCA)/Cat Flea: Test material is formulated in acetone at the desired exposure concentration and doubling dilutions performed to obtain a total of 10 testing levels. Approximately 0.05 ml of formulated material is dispensed into the bottom of a test tube containing a small amount of dog hair. Acetone is allowed to evaporate under a fume hood overnight. Approximately 10 mixed-sex adult cat flea are anesthetized using carbon dioxide and dispensed into each tube. Tubes are sealed using a ventilated plastic cap and incubated at 27° C. and 75-80% relative humidity. […] Nonlinear regression is used to model dose-mortality relationship and obtain relative potency (LD50) data compared to contemporaneous controls (acetone-only or fipronil).

House Fly = assay: Adult House Fly Assay (AhsF); parameters: species or system Musca domestica; conditions: 24 h, read-out: Potency (24 h EC50 μM)
Experimental: Adult Stable or House Fly Assay (ASF, AhsF). This assay is conducted essentially as described in White, W. H., S. M. Bauer, X. Zhao et al., Comparison of in vitro and in vivo ectoparasiticide activity of an experimental benzimidazole-carbamate with permethrin and amitraz, J. Med. Entomol. 42, 207-211 (2005); and White, W. H., C. M. McCoy, J. A. Meyer et al., Knockdown and mortality comparisons among spinosad-, imidacloprid-, and methomyl-containing baits against susceptible Musca domestica (Diptera: Muscidae) under laboratory conditions, J. Econ. Entomol. 100, 155-163 (2007).
Test material is formulated in DMSO at 10 mM. Doubling dilutions in like solvent are made to yield 10 testing levels. Materials are diluted in either bovine serum (stable flies) or 5% glucose solution (house flies) to obtain desired exposure concentrations from 200-0.39 μM. Approximately 3 ml of diluted test material is placed into a test tube (n=3 per test level) and a dental wick is used to absorb fluid. One dental wick is placed into a small weigh boat inside of a 100 mm Petri dish. Approximately 10 mixed-sex adult flies are anesthetized using carbon dioxide and counted into each dish. Dishes are incubated at 27° C. and 50-70% relative humidity. Flies recover from anesthesia and feed on compound-soaked dental wicks. After 24 h, live/dead flies are enumerated. Nonlinear regression is used to model dose-mortality relationship and obtain relative potency (LD50) data compared to contemporaneous controls (solvent-only or permethrin).

[1] = tested on: Horn Fly (Haematobia irritans); assay: Cattle Ectoparasiticide Test, pour-on or spray against horn flies; type: in vivo; conditions: cattle, Initial
Source text: Cattle Ectoparasiticide Test (CET)/Horn Fly (Haematobia irritans) and/or Adult Tick (Amblyomma americanum): Cattle are housed in environmentally controlled rooms, 1 or 2 animals per room that have screened doors and ventilation system to prevent fly escape. Following treatment application, a defined number of horn flies are released into each room (typically at or above economic threshold of 200 flies per animal). After defined periods of time, the numbers of live horn flies remaining on animals are enumerated. If a combination horn fly and tick experiment is conducted, adult lone star ticks are placed into surgical stockinette enclosures that are glued onto the backs of cattle. Cattle are restrained in a modified head gate within environmentally controlled rooms. Horn flies may be enumerated, followed by determination of the numbers of dead ticks inside of containment units. Typically there are 2 containment units per animal and at least 2 animals per treatment group.
B) Therapeutic and residual efficacy testing of spinetoram and Elector against horn flies when applied topically to cattle as a pour-on or topical spray. Spinetoram (120 g/L), Elector (25 g/L spinosad) as described previously were used. Test material was applied to animals as either a whole-body topical spray or neat pour-on. Spinetoram was diluted in water to 25 g/L prior to application as a pour-on. Both materials were diluted in water to 0.04% (400 ppm) for application as a whole-body spray in a total volume of 1 L per animal. There were a total of six animals per treatment group (n=6) plus six negative control animals. Beef and dairy cattle were used. Following treatments, horn flies were released into rooms harboring cattle. Live flies were enumerated 24 h following challenges.

Boophilus annulatus = assay: Whole-body spray treatment of Boophilus annulatus infestations on cattle; type: in vivo; parameters: residual efficacy, mean percentage control of the IF, Week 3 / residual efficacy, mean percentage control of the IF, Week 4: concentration or dose not given beside the values; residual efficacy, mean percentage control of the IF, Week 2: tested at 0.025% (250 ppm)
Experimental: C) Efficacy Testing and comparison of topically applied spinetoram with spinosad for the treatment of Boophilus annulatus infestations on cattle. Technical spinetoram and technical spinosad both formulated as 25 g/L suspension concentrate formulations similar to commercial Elector. Stability assays (HPLC and LPT bioassays) were conducted to confirm potency over extended periods of time (5 weeks) at cool and shelf-temperatures. Cattle were pre-infested 21 d prior to treatment with larval-stage B. annulatus ticks resulting the presence of very high numbers of all three life-stages of this tick at the time of treatment. Test materials were diluted to 0.025% (250 ppm) and applied to cattle as whole-body topical sprays in a volume of 10 L per animal. There were a total of six animals per treatment group (n=6). Animals were housed in covered stalls under ambient conditions of temperature and humidity. Engorged, detached adult female ticks were retrieved from animals in each stall on a daily basis. Egg masses were weighed and eggs were set for hatching to assess viability. Efficacy was measured in terms of total numbers of female ticks per animal and index of fecundity (IF).
Means were tested by General Linear Model (GLM), 1-way ANOVA. Differences (P<0.05) among means were separated using Tukey's all pairwise comparison. Means within the same column followed by different letters were significant at the P<0.05 level.
Means were tested by General Linear Model (GLM), 2-way ANOVA with parasitic life stage and treatment group as main effects. NS denotes not significant.

Lone Star Tick = assay: Larval Packet Test (LPT); conditions: Lone Star Tick larvae, 24 h
Experimental: Larval Packet Test (LPT)/Ticks: Test material is formulated in a 2:1 ratio of trichloroethylene: olive oil. Tissue biopsy bags are saturated with 1 ml of formulated material (n=3 per test level), and bags are allowed to dry under a fume hood for at least 2 hours. Approximately 50-100 larval-stage ticks are placed into each bag, and the bag is sealed using a plastic dialysis clip and incubated for 24 h at 27° C. and 95% relative humidity. Bags are then opened, and live/dead ticks are enumerated. Nonlinear regression is used to model dose-mortality relationship and obtain relative potency (LD50) data compared to contemporaneous controls (solvent-only or fipronil).

[2] = cattle, 0.025% AI whole-body spray, mean ± SD

N#Cc1nn(-c2c(Cl)cc(C(F)(F)F)cc2Cl)c(N)c1[S+]([O-])C(F)(F)F (stereo not drawn) [Fipronil, fipronil]
Potency (EC50 ng/cm^2) 24 h (Cat Flea): 43.56 ng/cm^2
Potency (EC50 ng/cm^2) 48 h (Cat Flea): 22.18 ng/cm^2
EC50 (House Fly; Musca domestica): 0.97 µM

O=[N+]([O-])NC1=NCCN1Cc1ccc(Cl)nc1 [Imidacloprid, imidacloprid]
Potency (EC50 ng/cm^2) 24 h (Cat Flea): 11.59 ng/cm^2
Potency (EC50 ng/cm^2) 48 h (Cat Flea): 7.737 ng/cm^2

CC1(C)C(C=C(Cl)Cl)C1C(=O)OCc1cccc(Oc2ccccc2)c1 (stereo not drawn) [Permethrin, permethrin]
Potency (EC50 ng/cm^2) 24 h (Cat Flea): 63.30 ng/cm^2
Potency (EC50 ng/cm^2) 48 h (Cat Flea): 0.1580 ng/cm^2

spinosad
GM percent horn fly reduction after 24 hrs, Pour-on ([1]; pour-on 2 mg/kg): 99.9%
GM percent horn fly reduction after 24 hrs, Spray ([1]; whole-body spray 0.04% AI): 100%
Potency (EC50 ng/cm^2) 24 h (Cat Flea): 3.084 ng/cm^2
Potency (EC50 ng/cm^2) 48 h (Cat Flea): 1.500 ng/cm^2
initial/knockdown activity against B. annulatus (Boophilus annulatus; cattle, 0.025% AI): poor
Number ♀♀ Ticks per Calf (Boophilus annulatus; [2]): 2423 ± 311 a
Total Index of Fecundity (IF) (Boophilus annulatus; [2]): 289 ± 40.1 a
Percentage Control of the IF (Boophilus annulatus; cattle, 0.025% AI whole-body spray, therapeutic efficacy): 27.6 ± 10.0 a %
Percentage control, Adult (Boophilus annulatus; parasitic life stage adult, 0.025% AI): 18.5 ± 13.0%
Percentage control, Larval (Boophilus annulatus; parasitic life stage larva, 0.025% AI): 33.1 ± 16.6%
Percentage control, Nymph (Boophilus annulatus; parasitic life stage nymph, 0.025% AI): 32.9 ± 10.8%
residual efficacy, mean percentage control of the IF, Week 1 (Boophilus annulatus; ticks infested as larvae Week 1 after treatment): 97.6 ± 2.1%
residual efficacy, mean percentage control of the IF, Week 2 (Boophilus annulatus; ticks infested as larvae Week 2 after treatment): 98.5 ± 1.2%
residual efficacy, mean percentage control of the IF, Week 3 (Boophilus annulatus; ticks infested as larvae Week 3 after treatment): 89.4 ± 6.2%
residual efficacy, mean percentage control of the IF, Week 4 (Boophilus annulatus; ticks infested as larvae Week 4 after treatment): 89.7 ± 4.8%
EC50 (House Fly; House Fly): 12 µM
Potency (EC50) (Lone Star Tick): 189.6 ppm
